# Reference: patent US8367084B2, “Oily base for a cosmetic and cosmetic comprising the same” (Kokyu Alcohol Kogyo Co., Ltd., priority 2009, dated 2013)
# How the values were obtained:
# Assay type in all cases: physicochemical
# [1] = Viscosity by Brookfield Viscometer DV-II+; details: Spindle No. 2, 12 rpm
# Method: Viscosity: determined by Brookfield Viscometer DV-II+ (Spindle No. 2, 12 rpm, 25 degrees C.).
# [2] = Hydroxyl value (Cosmetics Raw Material Standard 24); details: ester compound; unit assumed
# Text: Hydroxyl value: determined in accordance with “Cosmetics Raw Material Standard 24, Method for the Determination of a Hydroxyl Value”.
# [3] = Compatibility of the ester compound with oil agents; set-up: key to Compatibility: G: the compound exhibits the compatibility with both the hydrocarbon oil and silicone oil; M: the compound exhibits the compatibility with either of the two; B: the compound exhibits the compatibility with neither of the two; details: for Compatibility: 90% by mass ester compound in 10% by mass oil agent, appearance after one week at 25 degrees C.; for compatibility with the oil agents (in words): ester compound
# Method: Compatibility: The oil agents used were as follows:
# Hydrocarbon oil: Squalane (OLIVE SQUALANE from Kokyu Alcohol Kogyo Co., Ltd.)
# Silicone oil: Cyclomethicone (DOWCORNING TORAY SH 245 FLUID, trademark, from Dow Corning Toray Co., Ltd.)
# In 10% by mass of each oil agent indicated above were dissolved 90% by mass of the ester compound obtained from Preparation Examples and Comparative Preparation Examples in a hot water bath at a temperature of 80 to 90 degrees C. for 60 minutes under stirring. Next, the mixture obtained was cooled to 50 degrees C. under stirring and then placed in a temperature-controlled room at 25 degrees C. The appearance after one week was evaluated visually. The indication of the evaluation results is as follows.
# [4] = Acid value (Cosmetics Raw Material Standard 18); details: ester compound
# Text: Acid value: determined in accordance with “Cosmetics Raw Material Standard 18, Method for the Determination of an Acid Value”.
Viscosity in mPa · s at 25° C. [1] [mPa · s],Hydroxyl value [2] [mg KOH/g],Compatibility [3],compatibility with the oil agents (in words) [3],Acid value [4],Compound
290,0.59,M,not good,0.38,pentaerythrityl tetraisostearate [Com. Prep. Ex. 3]
109,1.25,M,not good,0.02,"CCCCC(CC)C(=O)OCC(COC(=O)C(CC)CCCC)(COC(=O)C(CC)CCCC)COC(=O)C(CC)CCCC (stereo not shown) [Com. Prep. Ex. 2, pentaerythrityl tetraethylhexanoate]"
